Measurements from patent US20050112123A1, “Methods of treating proteinuria” (priority 2003, published 2005).
Entries after “also recorded” stand apart in the source; their conditions may differ.

Tests used:
[1] = test system: conditionally immortalized wild-type podocytes; assay: MTT proliferation assay, wild-type (WT) podocytes under growth restriction; assay type: cell-based, mouse
Method: To test the hypothesis that ATRA altered the proliferative capacity of podocytes in HIV transgenic mice, conditionally immortalized podocytes harvested from transgenic HIV Tg-26 (Tg) and conditionally immortalized podocytes from transgene free or wild-type podocytes (controls) were compared in a series of studies. Both transgenic and wild-type cell lines were initially plated in “growth permissive” conditions (33° C.) and grown in 10 ml of “standard media,” consisting of 90% RPMI 1640 (Invitrogen, Grand Island, N.Y.), 10% fetal bovine serum (Hyclone, Logan, Utah), 1% L-glutamine (Irvine Scientific, Santa Ana, Calif.), 1% pen-strep (Biosource, Rockville, Md.), 1% sodium bicarbonate (Sigma-Aldrich, St Louis, Mo.) and 1% HEPES buffer (Sigma-Aldrich, Santa, Ana, Calif.), and 1% sodium pyruvate (Irvine Scientific, Santa Ana, Calif.). For growth promotion, 5 μl of mouse gamma interferon were added to 10 ml of media. […]
Each study group was assessed for proliferation (see below) at three different time points as follows: (i) day “1” of growth restriction which was defined as 24 h after plating cells into growth restrictive conditions; (ii) day 7 of growth restrictive conditions. […]
Cell proliferation was assessed by the MTT (Promega, Madison, Wis.) assay on days 1, 7, and 14 of growth restriction. […]

transgenic podocytes = assay: Immunostaining of HIV transgenic podocytes for podocyte and cell cycle proteins
[2] = test system: C57BL6 mice with anti-glomerular antibody-mediated podocyte injury; assay: Anti-glomerular antibody model of podocyte injury: renal function (proteinuria, BUN); assay type: in vivo, mouse; conditions: for BUN increase: anti-glomerular disease; for proteinuria vs control (vehicle): mice with anti-glomerular disease, ATRA 16.6 mg/kg IP daily, P<0.001, FIG. 3
Method: An antibody-mediated model of podocyte injury was induced in C57BL6 mice with a sheep anti-glomerular antibody (two doses of 0.3 ml/20 gm body weight) over two consecutive days. Kim et al. (1999) Kidney Int 55:2349-2361; and Ophascharoensuk et al. (1998) Kidney Int 54:416-425. After the induction of the anti-glomerular model, but before the development of proteinuria, mice were then divided into an experimental group that received daily injections of ATRA 16.6 mg/kg (IP), and a control group that received vehicle (corn oil). Experimental and control animals were studied on day 7 and 14 (n=5 per group/time point). The podocyte specific proteins WT-1, nephrin, podocin, synaptopodin, were measured by immunostaining at each time point, as was the proliferation marker, PCNA (see above). Using proliferating cell nuclear antigen (PCNA) as a marker of proliferation and WT-1 as a marker for podocytes, the level of podocyte proliferation was determined.
Renal Function Assessment. Control and experimental mice were placed in metabolic urine collection cages in order to obtain a timed collection for urinalysis. Urine was analyzed for protein content utilizing the sulphosalicylic acid (SSA) method as previously described. Shankland et al. (1996) Kidney Int. 50:116-124. Serum was also collected from mice in order to evaluate blood urea nitrogen (BUN) levels. The BUN kit (Sigma Chemicals, St. Louis, Mo., USA) is based on the direct interaction of urea with diacetyl monomoxime […]. The absorbance obtained from serum samples is compared with a standard curve of increasing concentrations of urea nitrogen standards.

[3] = transgenic podocytes, day 7 of growth restriction

Compound: CC1=C(/C=C/C(C)=C/C=C/C(C)=C/C(=O)O)C(C)(C)CCC1 [ATRA, all-trans retinoic acid]
- proliferation of WT podocytes (MTT), exposed to ATRA vs without ATRA [1]: no measurable difference
- cyclin A staining vs standard media (transgenic podocytes; ATRA exposed group): decreased intensity of staining
- cell number vs standard media (transgenic podocytes; ATRA group, cyclin A staining): grossly decreased
- WT-1 staining vs standard media (transgenic podocytes; [3]): increased staining intensity
- cd2ap staining vs transgenic podocytes in standard media (transgenic podocytes; [3]): increased intensity of staining
- cell size and cell number vs standard media (transgenic podocytes; [3]): appeared larger and decreased in number; also recorded: increased cell size and decreased cell number
- CD2AP staining vs standard media group (transgenic podocytes; transgenic podocytes, day 14 of growth restriction): increased staining intensity
- decrease in cell number (transgenic podocytes; transgenic podocytes, day 14 time point): not as prominent
- BUN increase ([2]; day 7): not altered
- BUN increase ([2]; day 14): not altered
- proteinuria vs control (vehicle) ([2]; day 7): significantly reduced proteinuria
- proteinuria vs control (vehicle) ([2]; day 14): significantly reduced proteinuria
